15 compounds from ChEMBL document CHEMBL1135951, “Potential anxiolytic agents. Part 4: novel orally-active N(5)-substituted pyrido[1,2-a]benzimidazoles with high GABA-A receptor affinity” (Bioorg Med Chem Lett, 2002) can be followed below.

As a reminder, the ED50 is the dose that gives a 50% effect, or the effect in half of the subjects. Low values mean greater potency, high ones weaker potency. In general, IC50 refers to the concentration needed to halve the response being measured. High values mean a need for much substance, low ones inhibition by little substance.

The first assay is filed under the species Mus musculus. Put plainly: Effective dose required for inhibition of pentylenetetrazole (PTZ)-induced seizures in mice perorally. Format: functional. Conditions: po.
In turn, `O=C1CCN2C(=C1C(=O)Nc1ccccc1F)N(CCn1ccnc1)c1cc(F)ccc12` yielded an ED50 of 10 mg/kg.

In turn, `COC(=O)OCCN1C2=C(C(=O)Nc3ccccc3F)C(=O)CCN2c2ccc(F)cc21` showed an ED50 of 3 mg/kg.

Consider `CCOCN1C2=C(C(=O)Nc3ccccc3F)C(=O)CCN2c2ccccc21`, for which the ED50 amounted to 3 mg/kg.

As to `N=C(N)NCCN1C2=C(C(=O)Nc3ccccc3F)C(=O)CCN2c2ccc(F)cc21`, the 50% effective dose (ED50) is above 30 mg/kg.

With `CCOCN1C2=C(C(=O)Nc3cccs3)C(=O)CCN2c2ccc(F)cc21`, the 50% effect level (ED50) was put at a dose of 0.2 mg/kg.

Turning to `CCOCN1C2=C(C(=O)Nc3ccccc3F)C(=O)CCN2c2ccc(Cl)cc21`, the ED50 was found to be 2 mg/kg.

Regarding `CN(C)/C=N/CCN1C2=C(C(=O)Nc3ccccc3F)C(=O)CCN2c2ccc(F)cc21`, it took a dose of 30 mg/kg to reach the 50% effect level (ED50).

On to `CCOCN1C2=C(C(=O)Nc3ccsc3)C(=O)CCN2c2ccc(F)cc21`, for which the 50% effective dose (ED50) is below 0.2 mg/kg.

On to `CCOCCCN1C2=C(C(=O)Nc3ccccc3F)C(=O)CCN2c2ccc(F)cc21`, for which the ED50 was determined as 0.3 mg/kg.

`CCOCN1C2=C(C(=O)Nc3ccccc3F)C(=O)CCN2c2ccc(F)c(F)c21` showed an ED50 below 3 mg/kg.

Compound `O=C1CCN2C(=C1C(=O)Nc1ccccc1F)N(CC1CCCO1)c1cc(F)ccc12` (stereo not drawn) displayed an ED50 of 3 mg/kg.

As to `CCOCN1C2=C(C(=O)Nc3ccc(C)s3)C(=O)CCN2c2ccc(F)cc21`, the ED50 was 0.5 mg/kg.

With `CCOCN1C2=C(C(=O)Nc3sccc3Cl)C(=O)CCN2c2ccc(F)cc21`, the ED50 stood at 10 mg/kg.

`CCOCN1C2=C(C(=O)Nc3ccccc3F)C(=O)CCN2c2cc3ccccc3cc21` returned an ED50 above 30 mg/kg.

In a further assay the target is GABA-A receptor; anion channel. The assay can be described thus: In vitro affinity for BZD site on GABA-A receptor from rat cerebral cortex using radioligand [3H]flunitrazepam.
Conditions: not given
Format: tissue-based.
As to `O=C1CCN2C(=C1C(=O)Nc1ccccc1F)N(CCn1ccnc1)c1cc(F)ccc12`, the IC50 stood at 1.6 nM.

Consider `COC(=O)OCCN1C2=C(C(=O)Nc3ccccc3F)C(=O)CCN2c2ccc(F)cc21`, for which the IC50 came out at 0.3 nM.

The compound `CCOCN1C2=C(C(=O)Nc3ccccc3F)C(=O)CCN2c2ccccc21` came in with an IC50 of 151 nM.

Compound `N=C(N)NCCN1C2=C(C(=O)Nc3ccccc3F)C(=O)CCN2c2ccc(F)cc21` gave an IC50 of 5.6 nM.

For `CCOCN1C2=C(C(=O)Nc3cccs3)C(=O)CCN2c2ccc(F)cc21`, the IC50 is 1 nM.

For `CCOCN1C2=C(C(=O)Nc3ccccc3F)C(=O)CCN2c2ccc(Cl)cc21`, the half-maximal inhibitory concentration (IC50) came to 0.5 nM.

Turning to `CN(C)/C=N/CCN1C2=C(C(=O)Nc3ccccc3F)C(=O)CCN2c2ccc(F)cc21`, the IC50 was found to be 35 nM.

`CCOCN1C2=C(C(=O)Nc3ccsc3)C(=O)CCN2c2ccc(F)cc21` came in with a concentration for half-maximal inhibition (IC50) of 1 nM.

Compound `CCOCCCN1C2=C(C(=O)Nc3ccccc3F)C(=O)CCN2c2ccc(F)cc21` came in with an IC50 of 0.3 nM.

The compound `CCOCN1C2=C(C(=O)Nc3ccccc3F)C(=O)CCN2c2ccc(F)c(F)c21` came in with an IC50 of 0.5 nM.

For `O=C1CCN2C(=C1C(=O)Nc1ccccc1F)N(CC1CCCO1)c1cc(F)ccc12` (stereo not drawn), the 50% inhibitory concentration (IC50) turned out to be 2.3 nM.

Take `CCOCN1C2=C(C(=O)Nc3ccc(C)s3)C(=O)CCN2c2ccc(F)cc21`: the concentration for half-maximal inhibition (IC50) stood at 0.7 nM.

`CCOCN1C2=C(C(=O)Nc3sccc3Cl)C(=O)CCN2c2ccc(F)cc21` came in with an IC50 of 0.7 nM.

`CCOCN1C2=C(C(=O)Nc3ccccc3F)C(=O)CCN2c2cc3ccccc3cc21` gave an IC50 of 2.2 nM.

As for `CCOCN1C2=C(C(=O)Nc3ccccc3F)C(=O)CCN2c2cc(F)cc(F)c21`, the IC50 was 13.3 nM.

A further assay has as its system Mus musculus. The assay can be described thus: Effective dose required for inhibition of pentylenetetrazole (PTZ)-induced seizures in mice intraperitoneally. It is filed as functional. As to conditions: ip.
In turn, `O=C1CCN2C(=C1C(=O)Nc1ccccc1F)N(CCn1ccnc1)c1cc(F)ccc12` came in with an ED50 of 1 mg/kg.

Consider `COC(=O)OCCN1C2=C(C(=O)Nc3ccccc3F)C(=O)CCN2c2ccc(F)cc21`, for which the ED50 is at most 1 mg/kg.

In turn, `CCOCN1C2=C(C(=O)Nc3ccccc3F)C(=O)CCN2c2ccccc21` displayed a 50% effective dose (ED50) above 1 mg/kg.

`N=C(N)NCCN1C2=C(C(=O)Nc3ccccc3F)C(=O)CCN2c2ccc(F)cc21`: the ED50 was above 1 mg/kg.

In turn, `CCOCN1C2=C(C(=O)Nc3cccs3)C(=O)CCN2c2ccc(F)cc21` showed an ED50 of at most 1 mg/kg.

Regarding `CCOCN1C2=C(C(=O)Nc3ccccc3F)C(=O)CCN2c2ccc(Cl)cc21`, the 50% effective dose (ED50) was below 1 mg/kg.

On to `CN(C)/C=N/CCN1C2=C(C(=O)Nc3ccccc3F)C(=O)CCN2c2ccc(F)cc21`, for which the ED50 was at most 1 mg/kg.

For the compound `CCOCN1C2=C(C(=O)Nc3ccsc3)C(=O)CCN2c2ccc(F)cc21`, the ED50 is at most 1 mg/kg.

With `CCOCCCN1C2=C(C(=O)Nc3ccccc3F)C(=O)CCN2c2ccc(F)cc21`, the median effective dose (ED50) is at most 1 mg/kg.

Compound `CCOCN1C2=C(C(=O)Nc3ccccc3F)C(=O)CCN2c2ccc(F)c(F)c21` yielded an ED50 below 1 mg/kg.

Turning to `O=C1CCN2C(=C1C(=O)Nc1ccccc1F)N(CC1CCCO1)c1cc(F)ccc12` (stereo not drawn), the 50% effective dose (ED50) is at most 1 mg/kg.

For the compound `CCOCN1C2=C(C(=O)Nc3ccc(C)s3)C(=O)CCN2c2ccc(F)cc21`, the ED50 is at most 1 mg/kg.

Consider `CCOCN1C2=C(C(=O)Nc3sccc3Cl)C(=O)CCN2c2ccc(F)cc21`, for which the ED50 is at most 1 mg/kg.

Turning to `CCOCN1C2=C(C(=O)Nc3ccccc3F)C(=O)CCN2c2cc3ccccc3cc21`, the ED50 is below 1 mg/kg.

The species entered for another assay is Rattus norvegicus. The assay can be described thus: Minimum effective dose required for anticonflict in rat perorally. Format: functional. As to conditions: po, read-out: MED.
As for `O=C1CCN2C(=C1C(=O)Nc1ccccc1F)N(CCn1ccnc1)c1cc(F)ccc12`, the minimal effective dose was above 10 mg/kg.

Take `COC(=O)OCCN1C2=C(C(=O)Nc3ccccc3F)C(=O)CCN2c2ccc(F)cc21`: the minimal effective dose is 3 mg/kg.

With `CCOCN1C2=C(C(=O)Nc3ccccc3F)C(=O)CCN2c2ccccc21`, the minimal effective dose worked out at 10 mg/kg.

For the compound `N=C(N)NCCN1C2=C(C(=O)Nc3ccccc3F)C(=O)CCN2c2ccc(F)cc21`, the minimal effective dose is above 10 mg/kg.

For the compound `CCOCN1C2=C(C(=O)Nc3cccs3)C(=O)CCN2c2ccc(F)cc21`, the minimal effective dose was 3 mg/kg.

For the compound `CCOCN1C2=C(C(=O)Nc3ccccc3F)C(=O)CCN2c2ccc(Cl)cc21`, the minimal effective dose is above 10 mg/kg.

Consider `CN(C)/C=N/CCN1C2=C(C(=O)Nc3ccccc3F)C(=O)CCN2c2ccc(F)cc21`, for which the minimal effective dose was determined as 30 mg/kg.

`CCOCN1C2=C(C(=O)Nc3ccsc3)C(=O)CCN2c2ccc(F)cc21`: the minimal effective dose is 0.3 mg/kg.

Consider `CCOCCCN1C2=C(C(=O)Nc3ccccc3F)C(=O)CCN2c2ccc(F)cc21`, for which the minimal effective dose is 1 mg/kg.

With `CCOCN1C2=C(C(=O)Nc3ccccc3F)C(=O)CCN2c2ccc(F)c(F)c21`, the minimal effective dose was 1 mg/kg.

With `O=C1CCN2C(=C1C(=O)Nc1ccccc1F)N(CC1CCCO1)c1cc(F)ccc12` (stereo not drawn), the minimal effective dose is 3 mg/kg.

In the case of `CCOCN1C2=C(C(=O)Nc3ccc(C)s3)C(=O)CCN2c2ccc(F)cc21`, the minimal effective dose was found to be 0.3 mg/kg.

In the case of `CCOCN1C2=C(C(=O)Nc3sccc3Cl)C(=O)CCN2c2ccc(F)cc21`, the minimal effective dose is above 10 mg/kg.

For `CCOCN1C2=C(C(=O)Nc3ccccc3F)C(=O)CCN2c2cc3ccccc3cc21`, the minimal effective dose was above 10 mg/kg.

For the compound `CCOCN1C2=C(C(=O)Nc3ccccc3F)C(=O)CCN2c2cc(F)cc(F)c21`, the minimal effective dose is above 10 mg/kg.

A further assay deals with GABA-A receptor; anion channel (Rattus norvegicus) (UniProt O09028+P15431+P18506+P18508+P19969+P20236+P23574+P23576+P28471+P28473+P30191+P62813+P63079+P63138+Q91ZM7+Q9ES14). Put plainly: Ratio of the binding in the absence and presence of GABA was determined. It is filed as protein-complex assay.
Conditions: not given
Consider `O=C1CCN2C(=C1C(=O)Nc1ccccc1F)N(CCn1ccnc1)c1cc(F)ccc12`, for which the GABA shift was 2.6.

As to `COC(=O)OCCN1C2=C(C(=O)Nc3ccccc3F)C(=O)CCN2c2ccc(F)cc21`, the GABA shift amounted to 2.2.

On to `CCOCN1C2=C(C(=O)Nc3ccccc3F)C(=O)CCN2c2ccccc21`, for which the GABA shift was 2.

In the case of `N=C(N)NCCN1C2=C(C(=O)Nc3ccccc3F)C(=O)CCN2c2ccc(F)cc21`, the GABA shift stood at 1.7.

Turning to `CCOCN1C2=C(C(=O)Nc3cccs3)C(=O)CCN2c2ccc(F)cc21`, the GABA shift was determined as 2.1.

For the compound `CCOCN1C2=C(C(=O)Nc3ccccc3F)C(=O)CCN2c2ccc(Cl)cc21`, the GABA shift amounted to 2.8.

For the compound `CN(C)/C=N/CCN1C2=C(C(=O)Nc3ccccc3F)C(=O)CCN2c2ccc(F)cc21`, the GABA shift was 2.1.

Take `CCOCN1C2=C(C(=O)Nc3ccsc3)C(=O)CCN2c2ccc(F)cc21`: the GABA shift came out at 1.7.

Take `CCOCCCN1C2=C(C(=O)Nc3ccccc3F)C(=O)CCN2c2ccc(F)cc21`: the GABA shift is 1.6.

Regarding `CCOCN1C2=C(C(=O)Nc3ccccc3F)C(=O)CCN2c2ccc(F)c(F)c21`, the GABA shift was found to be 1.7.

Regarding `O=C1CCN2C(=C1C(=O)Nc1ccccc1F)N(CC1CCCO1)c1cc(F)ccc12` (stereo not drawn), the GABA shift was determined as 2.2.

Turning to `CCOCN1C2=C(C(=O)Nc3ccc(C)s3)C(=O)CCN2c2ccc(F)cc21`, the GABA shift was 2.3.

Take `CCOCN1C2=C(C(=O)Nc3sccc3Cl)C(=O)CCN2c2ccc(F)cc21`: the GABA shift was found to be 1.6.

Turning to `CCOCN1C2=C(C(=O)Nc3ccccc3F)C(=O)CCN2c2cc3ccccc3cc21`, the GABA shift turned out to be 1.4.

In the case of `CCOCN1C2=C(C(=O)Nc3ccccc3F)C(=O)CCN2c2cc(F)cc(F)c21`, the GABA shift stood at 2.9.
